Experimental data reported in patent publication US7417156B2, “Orally active, antimalarial, anticancer, artemisinin-derived trioxane dimers” (Johns Hopkins University, priority 2002, dated 2008).

Key:
60 cell line panel = type: cell-based
RPMI-8226 = test: NCI 60 cell line panel screen (SRB); type: cell-based, human
HOP-92 = test: NCI 60 cell line panel screen (SRB); type: cell-based, human
NCI-H23 = test: NCI 60 cell line panel screen (SRB); type: cell-based, human
NCI-H322M = type: cell-based
NCI-H460 = test: NCI 60 cell line panel screen (SRB); type: cell-based, human
COLO 205 = test: NCI 60 cell line panel screen (SRB); type: cell-based, human
HCT-116 = test: NCI 60 cell line panel screen (SRB); type: cell-based, human
HCT-15 = test: NCI 60 cell line panel screen (SRB); type: cell-based, human
KM12 = test: NCI 60 cell line panel screen (SRB); type: cell-based, human
SNB-19 = test: NCI 60 cell line panel screen (SRB); type: cell-based, human
SNB-75 = test: NCI 60 cell line panel screen (SRB); type: cell-based, human
U251 = test: NCI 60 cell line panel screen (SRB); type: cell-based, human; settings: CNS Cancer, U251
[1] = mean value over the 60 cell line panel

## CC1CCC2C(C)C(CC(COC(=O)CCC(=O)O)CC3OC4OC5(C)CCC6C(C)CCC(C3C)C46OO5)OC3OC4(C)CCC1C32OO4 (stereo not shown) [Compound 8a, bis-trioxane primary succinate monoester]
60 cell line panel
  Log10GI50 Delta: 1.29
  Log10GI50 Range: 4.00
60 cell line panel; 60 cell line panel
  Log10LC50 Delta: 0.46
  Log10LC50 Range: 0.48
  Log10TGI50 Delta: 3.26
  Log10TGI50 Range: 4.00
60 cell line panel; colon cancer KM12, ovarian cancer OVCAR 3, breast cancer MDA-MB-435
  growth inhibition in words: selectively and strong inhibitory
60 cell line panel; mean over panel
  Log10GI50 MG MID: −7.01
60 cell line panel; [1]
  Log10LC50 MG MID: −4.32 log10M
  Log10TGI50 MG MID: −5.04 log10M
RPMI-8226; Leukemia, RPMI-8226
  Log10GI50: <−8.30
RPMI-8226; RPMI-8226 (Leukemia), LC50: PG=−50
  Log10LC50: >−4.30 log10M
RPMI-8226; RPMI-8226 (Leukemia), TGI: PG=0
  Log10TGI50: −6.19 log10M
HOP-92; HOP-92 (Non-Small Cell Lung Cancer), LC50: PG=−50
  Log10LC50: >−4.30 log10M
HOP-92; HOP-92 (Non-Small Cell Lung Cancer), TGI: PG=0
  Log10TGI50: >−4.30 log10M
HOP-92; Non-Small Cell Lung Cancer, HOP-92
  Log10GI50: −6.56
NCI-H23; NCI-H23 (Non-Small Cell Lung Cancer), LC50: PG=−50
  Log10LC50: >−4.30 log10M
NCI-H23; NCI-H23 (Non-Small Cell Lung Cancer), TGI: PG=0
  Log10TGI50: >−4.30 log10M
NCI-H23; Non-Small Cell Lung Cancer, NCI-H23
  Log10GI50: <−8.30
NCI-H322M; NCI-H322M (Non-Small Cell Lung Cancer), TGI: PG=0
  Log10TGI50: >−4.30 log10M
NCI-H322M; Non-Small Cell Lung Cancer, NCI-H322M
  Log10GI50: −5.11
NCI-H460; NCI-H460 (Non-Small Cell Lung Cancer), LC50: PG=−50
  Log10LC50: >−4.30 log10M
NCI-H460; NCI-H460 (Non-Small Cell Lung Cancer), TGI: PG=0
  Log10TGI50: >−4.30 log10M
NCI-H460; Non-Small Cell Lung Cancer, NCI-H460
  Log10GI50: <−8.30
COLO 205; COLO 205 (Colon Cancer), LC50: PG=−50
  Log10LC50: 4.78 log10M
COLO 205; COLO 205 (Colon Cancer), TGI: PG=0
  Log10TGI50: −6.29 log10M
COLO 205; Colon Cancer, COLO 205
  Log10GI50: <−8.30
HCT-116; Colon Cancer, HCT-116
  Log10GI50: <−8.30
HCT-116; HCT-116 (Colon Cancer), LC50: PG=−50
  Log10LC50: >−4.30 log10M
HCT-116; HCT-116 (Colon Cancer), TGI: PG=0
  Log10TGI50: >−4.30 log10M
HCT-15; Colon Cancer, HCT-15
  Log10GI50: <−8.30
HCT-15; HCT-15 (Colon Cancer), LC50: PG=−50
  Log10LC50: >−4.30 log10M
HCT-15; HCT-15 (Colon Cancer), TGI: PG=0
  Log10TGI50: −5.61 log10M
KM12; Colon Cancer, KM12
  Log10GI50: <−8.30
KM12; KM12 (Colon Cancer), LC50: PG=−50
  Log10LC50: −4.60 log10M
KM12; KM12 (Colon Cancer), TGI: PG=0
  Log10TGI50: <−8.30 log10M
SNB-19; CNS Cancer, SNB-19
  Log10GI50: −5.62
SNB-19; SNB-19 (CNS Cancer), LC50: PG=−50
  Log10LC50: >−4.30 log10M
SNB-19; SNB-19 (CNS Cancer), TGI: PG=0
  Log10TGI50: >−4.30 log10M
SNB-75; CNS Cancer, SNB-75
  Log10GI50: −6.47
SNB-75; SNB-75 (CNS Cancer), LC50: PG=−50
  Log10LC50: >−4.30 log10M
SNB-75; SNB-75 (CNS Cancer), TGI: PG=0
  Log10TGI50: >−4.30 log10M
U251
  Log10GI50: −8.20
